The target of data set [1] is HIV-1 integrase (Human immunodeficiency virus type 1 group M subtype B, UniProt P04585). As to the kind of experiment: HIV-1 integrase inhibition assay (microtiter plate, immobilised substrate DNA, Dig-labelled target DNA, OD 405 nm). It is filed as biochemical. How it is done:
Substrate DNA and target DNA, which sequences were indicated below, were synthesized by Amersham Pharmacia Biotech and dissolved in KTE buffer (composition: 100 mM KCl, 1 mM EDTA, 10 mM Tris-HCl (pH 7.6)) at concentration of 2 pmol/μl and 5 pmol/μl, respectively. The DNA solutions were annealed with each complement by slowly cooling after heating.
Streptavidin, obtained from Vector Laboratories, was dissolved in 0.1 M carbonate buffer (composition: 90 mM Na2CO3, 10 mM NaHCO3) at concentration of 40 μg/ml. After coating each well of microtiter plates (obtained from NUNC) with 50 μl of the above solution at 4° C. overnight, each well was washed twice with PBS (composition: 13.7 mM NaCl, 0.27 mM KCl, 0.43 mM Na2HPO4, 0.14 mM KH2PO4) and blocked with 300 μl of 1% skim milk in PBS for 30 min. Additionally, each well was washed twice with PBS and added 50 μl of substrate DNA solution (2 pmol/μl). The microtiter plates were kept at room temperature for 30 min. Then, each well was washed twice with PBS and once with H2O.
Subsequently, in the each well prepared above were added 45 μl of the reaction buffer prepared from 12 μl of the buffer (composition: 150 mM MOPS (pH 7.2), 75 mM MnCl2, 50 mM 2-mercaptoethanol, 25% glycerol, 500 μg/ml bovine serum albumin-fraction V), 1 μl of target DNA (5 pmol/μl), and 32 μl of the distilled water. Additionally, 6 μl of either a test compound in DMSO or DMSO for positive control(PC) was mixed with the above reaction buffer, then 9 μl of an integrase solution (30 pmol) was added and mixed well. In the well of negative control (NC) was added 9 μl of the integrase dilution buffer (composition: 20 mM MOPS (pH7.2), 400 mM potassium glutamate, 1 mM EDTA, 0.1% NP-40, 20% glycerol, 1 mM DTT, 4M urea).
The microtiter plates were incubated at 30° C. for 1 hour. The reaction solution was removed and each well was washed twice with PBS. Subsequently, each well of the microtiter plates was filled with 100 μl of anti-digoxigenin antibody labeled with alkaline phosphatase (Sheep Fab fragment: obtained from Boehringer) and incubated at 30° C. for 1 hour. Then, each well was washed twice with 0.05% Tween20 in PBS and once with PBS. Next, 150 μl of the Alkaline phosphatase reaction buffer (composition: 10 mM p-Nitrophenylphosphate (obtained from Vector Laboratories), 5 mM MgCl2, 100 mM NaCl, 100 mM Tris-HCl (pH 9.5)) was added in each well. […] The optical density (OD) at 405 nm of each well was measured and the percent inhibition was determined by the following expression.
The percent inhibition (%)=100[1-{(C abs.−NC abs.)/(PC abs.−NC abs.)}]
When the percent inhibition (%) is X % at the concentration of x μg/ml and the percent inhibition (%) is Y % at the concentration of y μg/ml, one of which is more than 50% and the other is less than 50%, IC50 can be determined by the following expression.
IC50(μg/ml)=x-{(X-50)(x-y)/(X-Y)}
Compound No. in the Table 1 is the same as compound No. of the above example.

Some results are limits rather than exact numbers.

The text below walks through data of patent publication US20040039060A1, “Inhibitor for enzyme having two divalent metal ions as active centers” (priority 2000, published 2004).

Consider `O=C(C=C(O)c1nn[nH]n1)c1ccc(Cc2ccc(F)cc2)o1` [Compound A-1, 1-[5-(4-Fluorobenzyl)furan-2-yl]3-hydroxy-3-(2H-tetrazol-5-yl)-propenone], for which the melting point – broadly, the temperature of the solid-liquid transition – was in the range of 121 to 123 °C. Inhibition in data set [1] was half-maximal at 1.27 µM (IC50).
`O=C(C=C(O)c1ncccn1)c1ccc(Cc2ccc(F)cc2)o1` [Compound A-2, 1-[5-(4-Fluorobenzyl)furan-2-yl]-3-hydroxy-3-(pyrimidin-2-yl)-propenone] had a melting point of 77 to 80 °C. Further, in data set [1], it took 0.247 µM to reach half-maximal inhibition (IC50).
For `O=C(C=C(O)c1cnccn1)c1ccc(Cc2ccc(F)cc2)o1` [Compound A-3, 1-[5-(4-Fluorobenzyl)furan-2-yl]-3-hydroxy-3-(pyrazin-2-yl)-propenone] the same measures were 127 to 129 °C and 1.85 µM.
For `O=C(C=C(O)c1ccccn1)c1ccc(Cc2ccc(F)cc2)o1` [Compound A-4, 1-[5-(4-Fluorobenzyl)furan-2-yl]-3-hydroxy-3-(pyridin-2-yl)-propenone] the same measures were 84 to 85 °C and 0.619 µM.
For `O=C(O)c1ccnc(C(O)=CC(=O)c2ccc(Cc3ccc(F)cc3)o2)c1` [Compound A-5, 3(4-Carboxypyridin-2-yl)-1-[5-(4-fluorobenzyl)furan-2-yl]-3-hydroxy-propenone] the same measures were 208 to 210 °C and 0.191 µM.
On to `O=C(O)c1ccc(C(O)=CC(=O)c2ccc(Cc3ccc(F)cc3)o2)nc1` [Compound A-6, 3-(5-Carboxypyridin-2-yl)-1-[5-(4-fluorobenzyl)furan-2-yl]-3-hydroxy-propenone], for which the melting point fell in the range of 196 to 198 °C. For the same compound, the concentration for half-maximal inhibition (IC50) (commonly the concentration that gives 50% inhibition) in data set [1] is 0.272 µM.
On the same counts, the results for `O=C(C=C(O)c1cc2ccccc2cn1)c1ccc(Cc2ccc(F)cc2)o1` [Compound A-7, 1-[5-(4-Fluorobenzyl)furan-2-yl]-3-hydroxy-3-(isoquinolin-3-yl)-propenone] are 154 to 156 °C and 3.75 µM.
For `O=C(C=C(O)c1ccon1)c1ccc(Cc2ccc(F)cc2)o1` [Compound A-9, 1-[5-(4-Fluorobenzyl)furan-2-yl]-3-hydroxy-3-(isoxazol-3-yl)-propenone] the same measures were 50 to 52 °C and 10.5 µM.
For `Cc1cc(C(O)=CC(=O)c2ccc(Cc3ccc(F)cc3)o2)no1` [Compound A-10, 1-[5-(4-Fluorobenzyl)furan-2-yl]-3-hydroxy-3-(5-methylisoxazol-3-yl)-propenone] the same measures were 95 to 97 °C and 5.5 µM.
`O=C(C=C(O)c1ccco1)c1ccc(Cc2ccc(F)cc2)o1` [Compound B-1, 1-[5-(4-Fluorobenzyl)furan-2-yl]-3-(furan-2-yl)-3-hydroxy-propenone]: the melting point was in the range of 44 to 45 °C. Also, the concentration for half-maximal inhibition (IC50) in data set [1] is above 320 µM.
For `O=C(C=C(O)c1ccoc1)c1ccc(Cc2ccc(F)cc2)o1` [Compound B-2, 1-[5-(4-Fluorobenzyl)furan-2-yl]-3-(furan-37yl)-3-hydroxy-propenone] the same measures were 53 to 55 °C and above 320 µM.
For `O=C(C=C(O)c1cccs1)c1ccc(Cc2ccc(F)cc2)o1` [Compound B-3, 1-[5-(4-Fluorobenzyl)furan-2-yl]-3-(thiophen-2-yl)-3-hydroxy-propenone] the same measures were 50 to 52 °C and above 305 µM.
In the case of `O=C(C=C(O)c1cccnc1)c1ccc(Cc2ccc(F)cc2)o1` [Compound B-4, 1-[5-(4-Fluorobenzyl)furan-2-yl]-3-hydroxy-3-(pyridin-3-yl)-propenone], the melting point is 53 to 54 °C. Also, in data set [1], the half-maximal inhibitory concentration (IC50) is above 309 µM.
For `Cn1cccc1C(O)=CC(=O)c1ccc(Cc2ccc(F)cc2)o1` [Compound B-5, 1-[5-(4-Fluorobenzyl)furan-2-yl]-3-hydroxy-3-(1-methylpyrrol-2-yl)-propenone], the melting point was 75 to 76 °C. The compound also returned a half-inhibitory concentration (IC50) in data set [1] above 307 µM.
Take `O=C(/C=C(\O)c1ccc[nH]1)c1ccc(Cc2ccc(F)cc2)o1` [Compound B-6, 1-[5-(4-Fluorobenzyl)furan-2-yl]-3-hydroxy-3-(pyrrol-2-yl)-propenone]: in data set [1], the 50% inhibitory concentration (IC50) is above 321 µM.
`Cc1cc(C(O)=CC(=O)c2ccc(Cc3ccc(F)cc3)o2)on1` [Compound B-7, 1-[5-(4-Fluorobenzyl)furan-2-yl]-3-hydroxy-3-(3-methylisoxazol-5-yl)-propenone] yielded a melting point of 106 to 107 °C. In data set [1], the concentration for half-maximal inhibition (IC50) is above 306 µM.
For `O=C(C=C(O)c1ccncc1)c1ccc(Cc2ccc(F)cc2)o1` [Compound B-8, 1-[5-(4-Fluorobenzyl)furan-2-yl]-3-hydroxy-3-(pyridin-4-yl)-propenone] the same measures were 90 to 92 °C and above 309 µM.
For `O=C(C=C(O)c1ncccc1C(=O)O)c1ccc(Cc2ccc(F)cc2)o1` [Compound B-9, 3-(3-Carboxypyridin-2-yl)-1-[5-(4-fluorobenzyl)furan-2-yl]-3-hydroxy-propenone] the same measures were 127 to 130 °C and above 272 µM.
In the case of `OC(=Cc1cc(CCc2ccccc2)ncn1)c1nnn[nH]1` [Compound C-2], in data set [1], the midpoint of inhibition, the IC50, lay at 4.76 µM.
On to `OC(=Cc1cc(CCc2ccccc2)ncn1)c1ncn[nH]1` [Compound C-3], for which the 50% inhibitory concentration (IC50) in data set [1] is 1.7 µM.
Still for that read-out and setting: then `OC(=Cc1cc(CCc2ccccc2)ncn1)c1nccs1` [Compound C-4], with 1.94 µM; and `OC(=Cc1cc(CCc2ccccc2)ncn1)c1cnccn1` [Compound C-5], with 5.26 µM.
Still for that read-out and setting: the result for `Cc1cc(C(O)=Cc2cc(CCc3ccccc3)ncn2)no1` [Compound C-6] reads 2.73 µM.
Still for that read-out and setting: then `O=C(O)C(O)=Cc1cnc(CCc2ccccc2)cn1` [Compound C-7], with 2.26 µM; and `O=C(O)/C(O)=C/c1ccc(OCc2ccccc2)cn1` [Compound C-8], with 1.7 µM.
Regarding `Cc1cc(C(O)=Cc2cc(CCc3ccccc3)ncn2)on1` [Compound D-1], in data set [1], the concentration for half-maximal inhibition (IC50) is above 325 µM.
The same measure, in the same setting: the result for `O=C(O)C(O)Cc1cc(CCc2ccccc2)ncn1` [Compound D-3] reads above 367 µM; that for `COC(=O)C(=O)c1oc2ccc(OCc3ccc(F)cc3)cc2c1O` [Compound E-1, [5-(4-Fluoro-benzyloxy)-3-hydroxy-benzofuran-2-yl]-2-oxo-acetic acid methyl ester], 7.55 µM.
As for `O=C(O)C(=O)c1oc2ccc(OCc3ccc(F)cc3)cc2c1O` [Compound E-2, [5-(4-Fluoro-benzyloxy)-3-hydroxy-benzofuran-2-yl]-2-oxo-acetic acid], the IC50 in data set [1] was 7.87 µM.
Regarding `COC(=O)C(=O)c1oc2ccc(Cc3ccc(F)cc3)cc2c1O` [Compound E-5, [5-(4-Fluoro-benzyl)-3-hydroxy-benzofuran-2-yl]-2-oxo-acetic acid methyl ester], the melting point fell in the range of 128 to 130 °C.
In turn, `O=C(O)C(=O)c1oc2ccc(Cc3ccc(F)cc3)cc2c1O` [Compound E-6, [5-(4-Fluorobenzyl)-3-hydroxy-benzofuran-2-yl]-2-oxo-acetic acid] came in with a melting point of 207 to 210 °C.
Same read-out and setting: the result for `O=C(c1ccccn1)c1oc2ccc(Cc3ccc(F)cc3)cc2c1O` [Compound E-8, 1-[5-(4-Fluoro-benzyl)-3-hydroxy-benzofuran-2-yl]-1-pyridine-2-yl-methanone] reads 258 °C (dec.).
